Assay results reported in the supplement of paper PMC10307832.

Legend:
Experiment in all cases: relative viability (nuclei count vs DMSO), 5 days (fraction); higher = more cells survive
Metformin + Bortezomib = compound: CN(C)C(=N)NC(=N)N [Metformin] + CC(C)C[C@H](NC(=O)[C@H](Cc1ccccc1)NC(=O)c1cnccn1)B(O)O [Bortezomib] (partner 0.002 µM)
In short: (§1)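 For relative viability, nuclei counts in treated wells were divided by those in vehicle wells. Lung cancer cell lines had been pin-tool dosed in 1536-well plates the day after seeding and cultured for 5 days, then fixed and stained in one step (final 0.05% Triton X-100, 1% formaldehyde, 1 ug/ml Hoechst) and imaged at 4×. Doses were one drug alone or a fixed anchor-drug dose plus five library-drug doses (not always all listed) in √10 steps, and values are duplicate-plate medians.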

Metformin + Linsitinib = compound: CN(C)C(=N)NC(=N)N [Metformin] + C[C@]1(O)C[C@@H](c2nc(-c3ccc4ccc(-c5ccccc5)nc4c3)c3c(N)nccn32)C1 [Linsitinib] (partner 1 µM)
In short: as §1

Apatinib + Palbociclib = compound: N#CC1(c2ccc(NC(=O)c3cccnc3NCc3ccncc3)cc2)CCCC1 [Apatinib] + CC(=O)c1c(C)c2cnc(Nc3ccc(N4CCNCC4)cn3)nc2n(C2CCCC2)c1=O [Palbociclib] (partner 0.5 µM)
In short: as §1

Apatinib + Dasatinib = compound: N#CC1(c2ccc(NC(=O)c3cccnc3NCc3ccncc3)cc2)CCCC1 [Apatinib] + Cc1nc(Nc2ncc(C(=O)Nc3c(C)cccc3Cl)s2)cc(N2CCN(CCO)CC2)n1 [Dasatinib] (partner 0.075 µM)
In short: as §1

Cell Line	relative viability (Metformin + Bortezomib; first compound 10 µM)	relative viability (Metformin + Bortezomib; first compound 31.62 µM)	relative viability (Metformin + Bortezomib; first compound 100 µM)	relative viability (Metformin + Bortezomib; first compound 316.23 µM)	relative viability (Metformin + Bortezomib; first compound 1000 µM)	relative viability (Metformin + Linsitinib; first compound 10 µM)	relative viability (Metformin + Linsitinib; first compound 31.62 µM)	relative viability (Metformin + Linsitinib; first compound 100 µM)	relative viability (Metformin + Linsitinib; first compound 316.23 µM)	relative viability (Metformin + Linsitinib; first compound 1000 µM)	relative viability (Apatinib + Palbociclib; first compound 0.08 µM)	relative viability (Apatinib + Palbociclib; first compound 0.253 µM)	relative viability (Apatinib + Palbociclib; first compound 0.8 µM)	relative viability (Apatinib + Palbociclib; first compound 2.53 µM)	relative viability (Apatinib + Palbociclib; first compound 8 µM)	relative viability (Apatinib + Dasatinib; first compound 0.08 µM)	relative viability (Apatinib + Dasatinib; first compound 0.253 µM)	relative viability (Apatinib + Dasatinib; first compound 0.8 µM)	relative viability (Apatinib + Dasatinib; first compound 2.53 µM)	relative viability (Apatinib + Dasatinib; first compound 8 µM)
RERF-LC-KJ	1.14	1.15	1.1	1.01	0.988	0.835	0.769	0.857	0.768	0.829	1.11	1.1	0.467	1.05	0.984	0.859	0.897	0.754	0.615	0.52
NCI-H647	1.19	1.15	1.18	0.921	1.17	1.11	1.14	1.24	1.19	1.2	0.516	0.451	0.336	0.384	0.303	0.506	0.253	0.175	0.169	0.152
NCI-H1395						0.997	1.15	0.934	1.02	0.385	0.632	0.687	0.644	0.585	0.602	0.412	0.399	0.367	0.349	0.378
NCI-H522											1.03	1.18	1.06	0.928	0.903	0.872	0.882	0.884	0.892	0.782
NCI-H322M	1.32	1.45	1.19	1.36	1.48	1.04	0.954	0.934	0.864	0.915	0.464	0.539	0.499	0.51	0.57	0.253	0.229	0.245	0.256	0.247
H3255	0.716	0.89	0.88	0.991	0.415	0.942	1.08	0.961	0.938	0.873	0.339	0.306	0.319	0.305	0.285	0.356	0.326	0.344	0.255	0.366
201T		1.15	1.1	1.06	1.12		1.12	1.1	1.07	1.06	0.366	0.362	0.354	0.381	0.292	0.617	0.511	0.525	0.502	0.423
SW 1573	1.19	1.15	0.963	1	1.36	0.916	0.811	0.969	0.72	0.996	0.4	0.518	0.433	0.379	0.252	0.454	0.624	0.393	0.351	0.458
NCI-H2170											0.387	0.382	0.362	0.379	0.298	0.551	0.447	0.489	0.464	0.572
NCI-H1993	1.09	1.19	1.12	1.18	1.39	0.719	0.73	0.838	0.686	0.705	0.783	0.736	0.597	0.528	0.616	0.63	0.663	0.558	0.538	0.503
NCI-H1755	0.861	0.913	0.843	0.783	0.896	0.842	0.84	0.871	0.843	0.914	0.462	0.464	0.434	0.404	0.422	0.524	0.484	0.451	0.394	0.399
NCI-H1437	0.629	0.641	0.459	0.527	0.574	1.22	1.09	1.11	1.1	1.19	0.314	0.3	0.277	0.254	0.209	0.28	0.417	0.373	0.266	0.157
EPLC-272H	0.837	0.91	0.907	0.909	1.22	1.39	1.39	1.26	1.08	1.51	0.284	0.341	0.359	0.336	0.313	0.382		0.358	0.355	0.335
LK-2						0.906	0.996	0.948	0.694	0.81	0.762	0.481	0.758	0.484	0.356	0.39	0.258	0.227	0.24	0.257
NCI-H1975	0.335	0.333	0.411	0.375	0.433	1.09	1.26	1.07	1.18	1.31	0.654	0.634	0.597	0.522	0.526	0.469	0.313	0.262	0.26	0.281
HARA	1.2	1.07	1.19	1.13	1.18	1.14	1.07	1.2	0.872	1.06	0.291	0.262	0.303	0.271	0.272	0.373	0.242	0.209	0.213	0.248
SK-MES-1						0.979	0.927	0.993	0.939	1.02	0.335	0.323	0.282	0.292	0.278	0.368	0.323	0.38	0.348	0.307
NCI-H2405	0.55	1.01	0.972	0.924	0.613	0.845	0.92	0.981	0.882	0.436	0.528	0.569	0.546	0.513	0.479	0.215	0.207	0.202	0.159	0.192
NCI-H1734	0.952	1.06	0.947	0.951	0.917	0.99	0.954	1.05	0.844	0.946	0.375	0.364	0.334	0.318	0.312	0.547	0.521	0.439	0.424	0.399
NCI-H1299	1.09	1.06	1.08	1.06	1.06	1.03	1.04	1	0.958	0.974										
NCI-H1915		1.01	0.985	0.961	1.02		1.22	1.15	1.14	1.11	0.549	0.524	0.555	0.5	0.475	0.323	0.32	0.293	0.321	0.36

Cell Line	relative viability (Metformin + Bortezomib; first compound 10 µM)	relative viability (Metformin + Bortezomib; first compound 31.62 µM)	relative viability (Metformin + Bortezomib; first compound 100 µM)	relative viability (Metformin + Bortezomib; first compound 316.23 µM)	relative viability (Metformin + Bortezomib; first compound 1000 µM)	relative viability (Metformin + Linsitinib; first compound 10 µM)	relative viability (Metformin + Linsitinib; first compound 31.62 µM)	relative viability (Metformin + Linsitinib; first compound 100 µM)	relative viability (Metformin + Linsitinib; first compound 316.23 µM)	relative viability (Metformin + Linsitinib; first compound 1000 µM)	relative viability (Apatinib + Palbociclib; first compound 0.08 µM)	relative viability (Apatinib + Palbociclib; first compound 0.253 µM)	relative viability (Apatinib + Palbociclib; first compound 0.8 µM)	relative viability (Apatinib + Palbociclib; first compound 2.53 µM)	relative viability (Apatinib + Palbociclib; first compound 8 µM)	relative viability (Apatinib + Dasatinib; first compound 0.08 µM)	relative viability (Apatinib + Dasatinib; first compound 0.253 µM)	relative viability (Apatinib + Dasatinib; first compound 0.8 µM)	relative viability (Apatinib + Dasatinib; first compound 2.53 µM)	relative viability (Apatinib + Dasatinib; first compound 8 µM)
NCI-H2228	1.44	1.09		0.956	1.13	0.542	0.973		0.583	0.889	0.668	0.788	0.776	0.708	0.667	0.538	0.533	0.518	0.387	0.295
NCI-H650	0.989	1.12	0.781	0.782	1.18	0.859	0.955	0.845	0.983	1.3	0.316	0.337	0.372	0.272	0.264	0.37	0.435	0.483	0.444	0.403
NCI-H2009	0.694	1.16	1.12	1	1.09	1.22	1.17	1.17	0.781	0.9	0.423	0.206	0.227	0.203	0.167	0.374	0.326	0.31	0.195	0.179
NCI-H23	1.07	1.04	1.04	1.11	1.28	0.701	0.623	0.705	0.675	0.763	0.561	0.57	0.575	0.409	0.424	0.799	0.837	0.694	0.727	0.611
NCI-H358						1.04	0.937	0.959	1.13	1.31	0.137	0.133	0.123	0.124	0.123	0.188	0.151	0.139	0.206	0.186
ChaGo-K-1	1.03	1.03	0.993	0.972	0.628						0.993	1.04	0.908	0.9	0.772	0.603	0.535	0.642	0.547	0.501
NCI-H596	1.05	1.13	1.3	1.27	1.21	1.11	1.18	1.32	1.08	1.25						0.634	0.564	0.556	0.564	0.555
A549						0.647	0.789	0.85	0.631	0.711										
NCI-H1648											0.273	0.218	0.328	0.273	0.274					
NCI-H1793						1.3	1.22	1.14	1	1.16	0.35	0.284	0.349	0.264	0.27	0.427	0.345	0.337	0.37	0.3
SW 900											0.616	0.548	0.558	0.478	0.435	0.699	0.429	0.545	0.476	0.491
NCI-H1623																0.438	0.598	0.493	0.545	0.595
NCI-H2342											0.497	0.524	0.49	0.498	0.572	0.267	0.295	0.307	0.28	0.283
NCI-H1703	0.389	0.394	0.453	0.42	0.505	1.41	0.892	0.832	0.485	0.599										
Calu-6	0.842	0.957	1.06	0.817	0.66	0.862	0.971	0.921	0.941	0.978										
EBC-1	0.699	0.666	0.618	0.541	0.59	0.796	0.997	0.815	0.698	0.884										
IA-LM		1.14	1.03	0.893	0.624	0.119	0.729	0.611	0.404	0.78										
HCC-44	0.861	0.858	0.88	0.88	0.856	0.712	0.679	0.695	0.597	0.654	0.999	0.987	0.894	0.839	0.8					
NCI-H1563	0.917	0.866	1.02	0.877	0.954	1.22	1.34	1.19	0.955	0.893						0.444	0.41	0.406	0.475	0.451
NCI-H1650	0.208	0.206	0.232	0.231	0.231						0.262	0.352	0.323	0.299	0.303		0.346	0.341	0.23	0.262
NCI-H1944						1.36	1.39	1.34	1.27	1.26	0.362	0.327	0.272	0.325	0.255	0.247	0.204	0.208	0.254	0.249
